Measured values reported in ChEMBL document CHEMBL4004888, “New derivatives of quinoline-4-carboxylic acid with antiplasmodial activity” (Bioorg Med Chem, 2017).

Key:
[1] = tested on: Plasmodium falciparum; experiment: Antiplasmodial activity against erythrocytic stage of chloroquine-sensitive Plasmodium falciparum NF54 assessed as reduction in [3H]hypoxanthine incorporation after 48 hrs by liquid scintillation counting method; assay type: functional
[2] = tested on: L6; experiment: Cytotoxicity against rat L6 cells after 70 hrs by alamar blue staining based fluorometric assay; assay type: cell-based; settings: L6, 70 h
[3] = Selectivity index, ratio of IC50 for rat L6 cells to IC50 for erythrocytic stage of chloroquine-sensitive Plasmodium falciparum NF54; assay type: toxicity; settings: read-out: Ratio IC50
[4] = tested on: Plasmodium falciparum; experiment: Antiplasmodial activity against erythrocytic stage of chloroquine/pyrimethamine-resistant Plasmodium falciparum K1 assessed as reduction in [3H]hypoxanthine incorporation after 48 hrs by liquid scintillation counting method; assay type: functional
[5] = Selectivity index, ratio of IC50 for rat L6 cells to IC50 for erythrocytic stage of chloroquine/pyrimethamine-resistant Plasmodium falciparum K1; assay type: toxicity; settings: L6 cells versus erythrocytic stage Plasmodium falciparum K1, read-out: Ratio IC50
[6] = tested on: Plasmodium berghei; experiment: Antiplasmodial activity against erythrocytic stage of GFP-fused Plasmodium berghei ANKA infected in NMRI mouse assessed as mouse survival days at 50 mg/kg, ip for 4 days measured up to 30 days post infection (reference value: 4 day); assay type: functional
[7] = tested on: Plasmodium berghei; experiment: Antiplasmodial activity against erythrocytic stage of GFP-fused Plasmodium berghei ANKA infected in NMRI mouse assessed as reduction in parasitaemia at 50 mg/kg, ip for 4 days measured at 24 hrs post last dose by FACS analysis relative to control; assay type: functional; parameters: scale not given: the % may be the effect or the level left
[8] = tested on: Plasmodium berghei; experiment: Antiplasmodial activity against erythrocytic stage of GFP-fused Plasmodium berghei ANKA infected in NMRI mouse assessed as mouse survival days at 10 mg/kg, ip for 4 days measured up to 30 days post infection (reference value: 4 day); assay type: functional

| SMILES | IC50 [1] [µM] | IC50 ([2]; read-out: IC50) [µM] | selectivity ratio [3] | IC50 [4] [µM] | selectivity ratio [5] | MSD [6] [days] | Activity [7] [%] | MSD [8] [days] | IC50 [2] [µM] |
| --- | --- | --- | --- | --- | --- | --- | --- | --- | --- |
| O=C(c1cc(-c2ccc(CN3CCOCC3)cc2)nc2ccc(F)cc12)N1CCNCC1 | 7.78 | 105 | 13.5 |  |  |  |  |  |  |
| O=C(Nc1ccccc1)c1cc(-c2ccc(CN3CCOCC3)cc2)nc2ccc(F)cc12 | 1.76 | 17.7 | 10.1 |  |  |  |  |  |  |
| CC(C)(C)OC(=O)N1CCN(C(=O)c2cc(-c3ccc(CN4CCOCC4)cc3)nc3ccc(F)cc23)CC1 | 13.8 | 29.6 | 2.14 |  |  |  |  |  |  |
| O=C(c1cc(-c2ccc(CN3CCOCC3)cc2)nc2ccc(F)cc12)N1CCN(c2ccccc2)CC1 | 4.92 | 24.6 | 5 |  |  |  |  |  |  |
| O=C(Nc1ccc([N+](=O)[O-])cc1)c1cc(-c2ccc(CN3CCOCC3)cc2)nc2ccc(F)cc12 | 0.21 | 13.8 | 65.7 |  |  |  |  |  |  |
| Fc1ccc2nc(-c3ccc(CN4CCOCC4)cc3)cc(CN3CCN(c4ccccc4)CC3)c2c1 | 13.3 | 31.9 | 2.4 |  |  |  |  |  |  |
| CN(C)c1ccc(NC(=O)c2cc(-c3ccc(CN4CCOCC4)cc3)nc3ccc(F)cc23)cc1 | 1.09 | 12.4 | 11.4 |  |  |  |  |  |  |
| O=C(c1cc(-c2ccc(CN3CCOCC3)cc2)nc2ccc(F)cc12)N1CCN(C(=O)c2cc(-c3ccc(CN4CCOCC4)cc3)nc3ccc(F)cc23)CC1 | 6.73 | 128 | 19 |  |  |  |  |  |  |
| O=C(NCCN1CCN(c2ccccc2)CC1)c1cc(-c2ccc(CN3CCOCC3)cc2)nc2ccc(F)cc12 | 0.01 | 3.94 | 394 | 0.007 | 563 | 4 | 17.1 |  |  |
| Fc1ccc2nc(-c3ccc(CN4CCOCC4)cc3)cc(CN3CCNCC3)c2c1 | 2.19 | 14.5 | 6.62 |  |  |  |  |  |  |
| N=C(N)N1CCN(C(=O)c2cc(-c3ccc(CN4CCOCC4)cc3)nc3ccc(F)cc23)CC1 | 49.3 | 210 | 4.26 |  |  |  |  |  |  |
| CN1CCN(C(=O)c2cc(-c3ccc(CN4CCOCC4)cc3)nc3ccc(F)cc23)CC1 | 5.08 | 135 | 26.6 |  |  |  |  |  |  |
| CCN(CC)C(=O)c1cc(-c2ccc(CN3CCOCC3)cc2)nc2ccc(F)cc12 | 12.5 | 121 | 9.68 |  |  |  |  |  |  |
| O=C(NCCN1CCNCC1)c1cc(-c2ccc(CN3CCOCC3)cc2)nc2ccc(F)cc12 | 0.53 | 54.5 | 103 |  |  |  |  |  |  |
| COc1ccc(NC(=O)c2cc(-c3ccc(CN4CCOCC4)cc3)nc3ccc(F)cc23)cc1 | 0.59 | 6.77 | 11.5 |  |  |  |  |  |  |
| CC(C)(C)OC(=O)N1CCN(CCNC(=O)c2cc(-c3ccc(CN4CCOCC4)cc3)nc3ccc(F)cc23)CC1 | 0.00021 | 13.5 | 64300 | 0.00087 | 15500 | 8.3 | 98.1 |  |  |
| CN1CCN(Cc2cc(-c3ccc(CN4CCOCC4)cc3)nc3ccc(F)cc23)CC1 | 1.98 | 17.7 | 8.94 |  |  |  |  |  |  |
| CN1CCN(CCNC(=O)c2cc(-c3ccc(CN4CCOCC4)cc3)nc3ccc(F)cc23)CC1 | 1.09 | 82 | 75.2 |  |  |  |  |  |  |
| C[C@@H]1CC[C@H]2[C@@H](C)C(=O)O[C@@H]3O[C@@]4(C)CC[C@@H]1[C@]32OO4 [ARTEMISININ] |  |  |  | 0.0064 | 70300 |  |  |  |  |
| O=C(NCCN1CCCC1)c1cc(-c2ccc(CN3CCOCC3)cc2)nc2ccc(F)cc12 [CABAMIQUINE] | 0.00013 | 28.5 | 219000 | 0.00022 | 129000 |  |  |  |  |
| CCN(CC)CCCC(C)Nc1ccnc2cc(Cl)ccc12 (stereo unspecified) [CHLOROQUINE] |  |  |  |  |  |  |  | 20 |  |
| COc1cc([C@@H]2c3cc4c(cc3[C@H](O)[C@H]3COC(=O)[C@H]23)OCO4)cc(OC)c1OC [PODOFILOX] |  |  |  |  |  |  |  |  | 0.012 |
